Assay results from ChEMBL document CHEMBL5233262, “Anti-inflammatory activity of naturally occuring diarylheptanoids - A review” (Bioorg Med Chem, 2021).
Converted amounts (≈) assume the structure as drawn.

Tests used:
RAW264.7 [1] = assay: Antiinflammatory activity in mouse RAW264.7 cells assessed as inhibition of LPS-induced NO production at 3 to 100 uM preincubated for 2 hrs followed by LPS stimulation and measured after 24 hrs by Griess method; assay type: functional; conditions: dose 3-100 µM, time 26 hrs
RAW264.7 [2] = assay: Antiinflammatory activity in mouse RAW264.7 cells assessed as inhibition of LPS-induced IL-6 production at 3 to 100 uM preincubated for 2 hrs followed by LPS stimulation and measured after 24 hrs by ELISA; assay type: functional; conditions: dose 3-100 µM, time 26 hrs
RAW264.7 [3] = assay: Antiinflammatory activity in mouse RAW264.7 cells assessed as inhibition of LPS-induced TNFalpha production at 3 to 100 uM preincubated for 2 hrs followed by LPS stimulation and measured after 24 hrs by ELISA; assay type: functional; conditions: dose 3-100 µM, time 26 hrs
RAW264.7 [4] = assay: Antiinflammatory activity in mouse RAW264.7 cells assessed as inhibition of LPS-induced TNFalpha production; assay type: functional, cell-based
RAW264.7 [5] = assay: Antiinflammatory activity in mouse RAW264.7 cells assessed as inhibition of LPS-induced NO production; assay type: functional, cell-based
[6] = Antiinflammatory activity in C57BL/6 mouse BMDC cells assessed as inhibition of imiquimod-induced IL-1beta expression level at 10 uM and measured after 12 hrs by western blot analysis; assay type: functional; conditions: C57BL/6, BMDC
[7] = Antiinflammatory activity in C57BL/6 mouse BMDC cells assessed as inhibition of imiquimod-induced IL-12 expression level at 10 uM and measured after 12 hrs by western blot analysis; assay type: functional; conditions: C57BL/6, BMDC
[8] = Antiinflammatory activity in C57BL/6 mouse BMDC cells assessed as inhibition of imiquimod-induced IL-6 expression level at 10 uM and measured after 12 hrs by western blot analysis; assay type: functional; conditions: C57BL/6, BMDC
[9] = Antiinflammatory activity in C57BL/6 mouse BMDC cells assessed as inhibition of imiquimod-induced IL-1beta mRNA expression level at 10 uM and measured after 12 hrs by qpCR analysis; assay type: functional; conditions: C57BL/6, BMDC
[10] = Antiinflammatory activity in C57BL/6 mouse BMDC cells assessed as inhibition of imiquimod-induced IL-6 mRNA expression level at 10 uM and measured after 12 hrs by qpCR analysis; assay type: functional; conditions: C57BL/6, BMDC
[11] = Antiinflammatory activity in C57BL/6 mouse BMDC cells assessed as inhibition of imiquimod-induced IL-12 mRNA expression level at 10 uM and measured after 12 hrs by qpCR analysis; assay type: functional; conditions: C57BL/6, BMDC
[12] = Antiinflammatory activity in human HAP1 cells assessed as inhibition of LPS-induced NO production at 5 uM; assay type: functional
[13] = Antiinflammatory activity in human HAP1 cells assessed as inhibition of LPS-induced iNOS expression at 5 uM; assay type: functional
[14] = Antiinflammatory activity in human HAP1 cells assessed as inhibition of LPS-induced NF-kappaB activation at 5 uM; assay type: functional
[15] = Anti-osteoclastogenic activity in human BMDC assessed in inhibition of RANKL mediated osteoclast differentiation; assay type: functional, cell-based
[16] = Antiinflammatory activity in human HAP1 cells assessed as inhibition of LPS-induced ROS production at 5 uM; assay type: functional
RAW264.7 [17] = assay: Antiinflammatory activity in mouse RAW264.7 cells assessed as inhibition of LPS-induced NO production for 24 hrs by colorimetric analysis; assay type: functional, cell-based; conditions: RAW264.7, 24 h
[18] = Antiinflammatory activity in human HAP1 cells assessed as inhibition of LPS-induced p38 MAPK activation at 5 uM; assay type: functional
Hep 3B2 [19] = assay: Antiinflammatory activity in human Hep3B cells assessed as inhibition of IL-6 stimulated IL-1beta mRNA expression at 30 uM preincubated for 60 mins followed by IL-6 stimulation and measured after 20 mins by RT-PCR analysis; assay type: functional; conditions: 1.333 h, time 80 min
Hep 3B2 [20] = assay: Antiinflammatory activity in human Hep3B cells assessed as inhibition of IL-6 stimulated CRP mRNA expression at 30 uM preincubated for 60 mins followed by IL-6 stimulation and measured after 20 mins by RT-PCR analysis; assay type: functional; conditions: 1.333 h, time 80 min
Hep 3B2 [21] = assay: Antiinflammatory activity in human Hep3B cells assessed as inhibition of IL-6 stimulated SOCS3 mRNA expression at 30 uM preincubated for 60 mins followed by IL-6 stimulation and measured after 20 mins by RT-PCR analysis; assay type: functional; conditions: 1.333 h, time 80 min
Hep 3B2 [22] = assay: Antiinflammatory activity in human Hep3B cells assessed as inhibition of IL-6 stimulated ICAM-1 mRNA expression at 30 uM preincubated for 60 mins followed by IL-6 stimulation and measured after 20 mins by RT-PCR analysis; assay type: functional; conditions: 1.333 h, time 80 min
HUVEC [23] = assay: Antiinflammatory activity in human HUVEC cells assessed as TNFalpha induced VCAM-1 expression at 5 to 20 uM preincubated for 1 hrs followed by TNFalpha stimulation and measured after 6 hrs by fluorescence analysis; assay type: functional; conditions: dose 5-20 µM, time 7 hrs
HUVEC [24] = assay: Antiinflammatory activity in human HUVEC cells assessed as LPS induced NF-kappaB transactivation at 5 to 20 uM preincubated for 1 hrs followed by LPS stimulation and measured after 6 hrs by fluorescence analysis; assay type: functional; conditions: dose 5-20 µM, time 7 hrs
HUVEC [25] = assay: Antiinflammatory activity in human HUVEC cells assessed as TNFalpha induced NF-kappaB transactivation at 5 to 20 uM preincubated for 1 hrs followed by TNFalpha stimulation and measured after 6 hrs by fluorescence analysis; assay type: functional; conditions: dose 5-20 µM, time 7 hrs
HUVEC [26] = assay: Antiinflammatory activity in human HUVEC cells assessed as LPS induced VCAM-1 expression at 5 to 20 uM preincubated for 1 hrs followed by LPS stimulation and measured after 6 hrs by fluorescence analysis; assay type: functional; conditions: dose 5-20 µM, time 7 hrs
Mus musculus [27] = assay: Protective activity in Pde6brd10 mouse model of Retinitis pigmentosa assessed as decrease in TNFalpha production in retina at 5 mg/kg,ip for 14 days by ELISA; assay type: functional; design: scale not given: the % may be the effect or the level left; conditions: time 14 day
Mus musculus [28] = assay: Protective activity in Pde6brd10 mouse model of Retinitis pigmentosa assessed as decrease in IL-6 production in retina at 5 mg/kg,ip for 14 days by ELISA; assay type: functional; design: scale not given: the % may be the effect or the level left; conditions: time 14 day
Mus musculus [29] = assay: Protective activity in Pde6brd10 mouse model of Retinitis pigmentosa assessed as decrease in IL-12 gene expression level in retina at 5 mg/kg,ip for 14 days by qRT-PCR analysis; assay type: functional; design: scale not given: the % may be the effect or the level left; conditions: time 14 day
Mus musculus [30] = assay: Protective activity in Pde6brd10 mouse model of Retinitis pigmentosa assessed as decrease in IL-6 gene expression level in retina at 5 mg/kg,ip for 14 days by qRT-PCR analysis; assay type: functional; design: scale not given: the % may be the effect or the level left; conditions: time 14 day
Mus musculus [31] = assay: Protective activity in Pde6brd10 mouse model of Retinitis pigmentosa assessed as decrease in IL-1beta production in retina at 5 mg/kg,ip for 14 days by ELISA; assay type: functional; design: scale not given: the % may be the effect or the level left; conditions: time 14 day
Mus musculus [32] = assay: Protective activity in Pde6brd10 mouse model of Retinitis pigmentosa assessed as decrease in IL-12 production in retina at 5 mg/kg,ip for 14 days by ELISA; assay type: functional; design: scale not given: the % may be the effect or the level left; conditions: time 14 day
Mus musculus [33] = assay: Protective activity in Pde6brd10 mouse model of Retinitis pigmentosa assessed as decrease in TNF-alpha gene expression level in retina at 5 mg/kg,ip for 14 days by qRT-PCR analysis; assay type: functional; design: scale not given: the % may be the effect or the level left; conditions: time 14 day
Mus musculus [34] = assay: Protective activity in Pde6brd10 mouse model of Retinitis pigmentosa assessed as decrease in NF-kappaB expression level in retina at 5 mg/kg,ip for 14 days by Western blot analysis; assay type: functional; design: scale not given: the % may be the effect or the level left; conditions: time 14 day
Mus musculus [35] = assay: Protective activity in Pde6brd10 mouse model of Retinitis pigmentosa assessed as decrease in NO production in retina at 5 mg/kg,ip for 14 days by Griess assay; assay type: functional; design: scale not given: the % may be the effect or the level left; conditions: time 14 day
Mus musculus [36] = assay: Protective activity in Pde6brd10 mouse model of Retinitis pigmentosa assessed as decrease in IL-1beta gene expression level in retina at 5 mg/kg,ip for 14 days by qRT-PCR analysis; assay type: functional; design: scale not given: the % may be the effect or the level left; conditions: time 14 day

COc1cc2ccc1Oc1cc(ccc1O)CC[C@H](O[C@@H]1O[C@H](CO)[C@@H](O)[C@H](O)[C@H]1O)CC(=O)CC2
inhibition (INH) (RAW264.7 [1]): 32.7% | inhibition (INH) (RAW264.7 [2]): 29.2% | inhibition (INH) (RAW264.7 [3]): 44.1%

COc1cc([C@@H](O)[C@@H](O)[C@@H](O)C[C@H](O)CCc2ccc(O)cc2)ccc1O
IC50 (RAW264.7 [4]): > 100000 nM | IC50 (RAW264.7 [5]): 32.6 µg/mL (≈ 86.1 µM)

O=C(/C=C/C=C/c1ccc(O)cc1)CCc1ccc(O)cc1
inhibition at 10 µM [6]: 56% | inhibition at 10 µM [7]: 31% | inhibition at 10 µM [8]: 58% | inhibition at 10 µM [9]: 86% | inhibition at 10 µM [10]: 61% | inhibition at 10 µM [11]: 69%

Oc1ccc(CC[C@@H](O)CC/C=C/c2ccccc2)cc1O
inhibition at 5 µM [12]: 91% | inhibition at 5 µM [13]: 85% | inhibition at 5 µM [14]: 52% | IC50 [15]: 325 nM | inhibition at 5 µM [16]: 90% | IC50 (RAW264.7 [17]): 420 nM | inhibition at 5 µM [18]: 44%

COc1ccc(/C=C/C(C[C@H](O)CCc2ccc(OC)c(OC)c2)OC)cc1OC (stereo partly specified)
inhibition at 30 µM (Hep 3B2 [19]): 91% | inhibition at 30 µM (Hep 3B2 [20]): 91% | inhibition at 30 µM (Hep 3B2 [21]): 91% | inhibition at 30 µM (Hep 3B2 [22]): 76%

COc1cc(CC/C=C/C(=O)CCc2ccc(O)c(OC)c2)ccc1O
Activity (HUVEC [23]): 26% | Activity (HUVEC [24]): 8% | Activity (HUVEC [25]): 7% | Activity (HUVEC [26]): 17%

COc1c2cc(c(OC)c1O)-c1cc(ccc1O)CC[C@@H](O)CCCC2
Activity (Mus musculus [27]): 16% | Activity (Mus musculus [28]): 12% | Activity (Mus musculus [29]): 38% | Activity (Mus musculus [30]): 31% | Activity (Mus musculus [31]): 22% | Activity (Mus musculus [32]): 12% | Activity (Mus musculus [33]): 49% | Activity (Mus musculus [34]): 50% | Activity (Mus musculus [35]): 21% | Activity (Mus musculus [36]): 41%
